Results: PMC8882908, “Tricyclic Antidepressant Structure-Related Alterations in Calcium-Dependent Inhibition and Open-Channel Block of NMDA Receptors” (Frontiers in Pharmacology, 2022)
Where “and” joins values, the source holds several entries; their conditions need not be identical. Equal values may be shown once. Read-outs that look alike come from different tables or passages of the source.

Columns and labels:
[1] = test system: N-methyl-D-aspartate receptors (NMDARs); settings: for δ, fraction of the membrane electric field to the binding site: Woodhull model, from the outside
Method: All procedures on animals were performed in accordance with the guide of the Federation for Laboratory Animal Science Associations (FELASA) and were approved by the Animal Care and Use Committees of Sechenov Institute. Briefly, 17 days pregnant Wistar rats (supplied by the Sechenov Institute Animal Facility) were sacrificed by 1 min CO2 inhalation in a plastic box connected to a CO2 tank. Fetuses were removed, and then primary cultures of rat cortical neurons were prepared using conventional procedures as described earlier ([Antonov and Johnson 1996]; [Mironova et al., 2007]). Neurons were grown in Neurobasal culture medium supplemented with B-27 (Gibco-Invitrogen, United Kingdom) on 7 mm glass coverslips coated with poly-D-lysine and were used for experiments after 10–14 days in culture ([Mironova et al., 2007]; [Han and Stevens 2009]).
Whole-cell currents were recorded from cultured rat cortical neurons using a MultiClamp 700B patch-clamp amplifier. Recordings were low-pass filtered at 400 Hz and digitized at the acquisition rate of 20,000 samples per second by Digidata 1440A controlled by pClamp v10.6 software (Molecular Devices). Solution exchange was performed by means of a fast solution application system as described earlier ([Sibarov et al., 2015]). Unless otherwise specified, the external bathing solution contained (in mM): 144 NaCl; 2.8 KCl; 1.0 CaCl2; 10 HEPES, at pH 7.2–7.4, osmolarity 310 mOsm. The intrapipette solution contained (in mM): 120 CsF, 10 CsCl, 10 EGTA, and 10 HEPES, osmolarity 300 mOsm, with pH adjusted to 7.4 with CsOH. Patch pipettes of 4–6 MΩ were pulled from Sutter BF150-89-10 borosilicate capillaries. Experiments were performed at 22–25°C. Under control conditions, neurons were voltage clamped at −70 mV. Data are reported without corrections for liquid junction potential, which was measured as −11 mV. To activate NMDARs, 100 µM NMDA was always co-applied with 10 µM glycine as co-agonist. Some experiments were performed on neurons loaded with BAPTA. To load BAPTA, cortical neuron cultures were incubated in a bathing solution containing 5 µM BAPTA-AM for 1 h.
To determine the blocking potency of TCAs, NMDA elicited currents were measured in the absence and presence of different TCA concentrations ([B]). Amplitudes of currents measured in the presence of blocker (Ib) were normalized to maximal current response in control (Ic). The IC50 is the concentration of TCA that cause 50% of the maximal inhibition of currents, and the Hill coefficient (h) were estimated by fitting concentration-inhibition curves with the Hill equation: Ib/Ιc=1/(1+[Β]^h/ΙC50h) (1)
To obtain the voltage-dependence of NMDAR block by TCAs, the concentration-ihibition curves were generated at three membrane holding potentials Vm = −100, −70, and −30 mV. The obtained values were fitted with the modified by incorporating the dependence of NMDAR inhibition on [Ca^2+] ([Stepanenko et al., 2019]) Woodhull equation: IC50(Vm[Ca^2+])=IC50(0 mV)·exp(VmzδF/RT)·exp(-[Ca^2+]/X) (6) where IC50 (0 mV) and δ were set as free parameters. […] For Faraday constant, gas constant, and room temperature of 28°C, the RT/F ≈ 26 mV. RT/(zδF) is equal to Vm, producing an e-fold change of IC50, and X is equal to [Ca^2+], producing an e-fold change of IC50.

[2] = design: method as in Stern et al., 1980; McTavish and Benfield 1990; settings: ref Stern et al., 1980; McTavish and Benfield 1990; cited from earlier work
[3] = target: N-methyl-D-aspartate receptors (NMDARs); settings: read-out: model-predicted IC50; [Ca2+] = 2.5 mM, Vm = −70 mV
Text: To obtain the voltage-dependence of NMDAR block by TCAs, the concentration-ihibition curves were generated at three membrane holding potentials Vm = −100, −70, and −30 mV. The obtained values were fitted with the modified by incorporating the dependence of NMDAR inhibition on [Ca^2+] ([Stepanenko et al., 2019]) Woodhull equation: IC50(Vm[Ca^2+])=IC50(0 mV)·exp(VmzδF/RT)·exp(-[Ca^2+]/X) (6) where IC50 (0 mV) and δ were set as free parameters. IC50 (0 mV) is the value of IC50 at Vm = 0 mV, δ is the fraction of the membrane voltage field exerting force on TCA at its binding site. z = 1 is a molecule electric charge for both DES and CLO. For Faraday constant, gas constant, and room temperature of 28°C, the RT/F ≈ 26 mV. RT/(zδF) is equal to Vm, producing an e-fold change of IC50, and X is equal to [Ca^2+], producing an e-fold change of IC50.
The model is described by Eq. 6 IC50 (Vm, [Ca^2+]) = IC50 (0 mV) • exp (Vm/(e-fold change Vm)) • exp (- [Ca^2+]/(e-fold change [Ca^2+])). The dependences of TCA IC50s on [Ca^2+] […]
FIGURE 7 Predicted IC50 values for NMDAR inhibition by tricyclic antidepressants as a function of membrane voltage (Vm) and external [Ca^2+]. […] The IC50s were calculated as IC50(Vm, [Ca^2+]) = IC50(0 mV) · exp (Vm/Y) ·exp(-[Ca^2+]/X), where X is equal to the [Ca^2+] value required for an e-fold change of IC50, and Y is equal to the Vm value required for an e-fold change of IC50.

NMDARs = settings: cited from earlier work
[4] = test system: N-methyl-D-aspartate receptors (NMDARs); experiment: Kinetics of NMDAR open-channel block and trapping block (block/unblock relaxations, AP5 washout protocol); format: cell-based, rat
Method: Experiments were performed at 22–25°C.
NMDAR current relaxations during block or unblock by TCA were fit with the single exponential equation: I =(Imax-Imin)·exp (-t/τ)+Imin (2) where Imax and Imin are maximal and minimal amplitudes of currents during relaxations and τ represents the time constant of the exponential component during block onset (τon) or offset (unblock, τoff). From these measurements, the rate constants of block (k^+) and unblock (k^−) was estimated. k^+ was obtained from τon measured at 20 and 90 μM DES (C1 and C2 respectively) using the equation: k^+=(1 /τonC2-1/τonC1)/(C2 - C1) (3)
The k^− was the reciprocal to measured τoff: k^-=1 /τoff (4)
The equilibrium dissociation constant (Kd) for DES was calculated as follows: Kd=k^-/ k^+ (5)
The rise time of currents activated by the testing NMDA + Gly application in trapping channel block experiments was fitted in ClampFit (pClamp, Axon Instruments) using the double exponential function: I=I1·exp(-t/τ1)+I2·exp(-t/τ2)- C (7) where I1 and I2 are amplitudes of the exponential and τ1 and τ2 are time constants of the exponential and C equals I1 + I2 + Ib.
To study the kinetics of open-channel block of NMDARs by DES, we performed experiments at a single Vm = −70 mV using a Ca^2+-free bathing solution to avoid the influence of the Ca^2+-dependent process. DES was applied at a steady state of NMDAR currents at high (90 μM) or low (20 μM) concentrations (Figure 4A). DES-induced block corresponds well to basic predictions of an open-channel block. The block onset (τon) and offset (τoff) were well fit by a single exponential function (Eq. 2). […] The rate constants of block and unblock calculated on the basis of Eqs 3, 4 were k^+ = 0.008 ± 0.002 s^−1 μM^−1; k^− = 0.039 ± 0.005 s^−1, correspondently.
The absence in records of “tail currents” upon the simultaneous removal of agonists and a blocker may speak in favor of trapping of the blocking molecule inside of the pore ([Costa and Albuquerque 1994]; [Vorobjev and Sharonova 1994]; [Benveniste and Mayer 1995]; [Sobolevsky et al., 1999]). We, therefore, further tested the possibility of trapping of DES in the pore of NMDARs by the channel closure. A series of experiments were carried out following the protocol used previously for ATL ([Stepanenko et al., 2019]). After reaching an equilibrium of NMDA-mediated currents, 90 μM DES was applied to the cell for 10 s until the development of a stable block with a small amount of residual current (Ib) (Figure 4C). […] Single exponential approximation of the data at Figure 4E (dashed line) elicits the time constant of 7.7 ± 1.8 s for DES escape from trapping, representing the quantitative characteristic of DES partial trapping block.

NMDAR channels = test system: NMDAR channels; design: method as in Reynolds and Miller 1988; settings: ref Reynolds and Miller 1988; cited from earlier work

CN(C)CCCN1c2ccccc2CCc2ccc(Cl)cc21 [CLO, clomipramine]
δ, fraction of the membrane electric field to the binding site [1]: 0.51
therapeutic blood concentrations [2]: 0.3 to 1 µM

CN(C)CCC=C1c2ccccc2CCc2ccccc21 [ATL, amitriptyline]
IC50 [3]: 1.6 µM
e-fold change Vm (NMDARs; ref Stepanenko et al., 2019): 54 mV
e-fold change [Ca2+] (NMDARs; ref Stepanenko et al., 2019): 0.63 mM
time constant of escape from trapping block (NMDARs; ref Stepanenko et al., 2019): about 1.2 s
δ, fraction of the membrane electric field (NMDARs; ref Stepanenko et al., 2019): 0.51
IC50 (NMDARs; ref Stepanenko et al., 2019, read-out: IC50(0 mV)): 321 µM

CNCCCN1c2ccccc2CCc2ccccc21 [DES, desipramine]
fold lesser rate of dissociation from channels than ATL [4]: about 5 folds
rate constant of unblock k− ([4]; Vm = −70 mV, Ca2+-free solution, 1/τoff): 0.039 ± 0.005 s⁻¹
rate constant of block k+ ([4]; Vm = −70 mV, Ca2+-free solution, from τon at 20 and 90 μM): 8000 ± 2000 M⁻¹ s⁻¹
Kd ([4]; Vm = −70 mV, Ca2+-free solution, read-out: equilibrium dissociation constant Kd = k−/k+): 4.7 ± 1.9 µM
fold drop of IC50 on increasing extracellular [Ca2+] from 0 to 1 mM [1]: 5 fold
fold smaller Vm shift for an e-fold change of IC50 than ATL or CLO [1]: ~1.5 folds
δ, fraction of the membrane electric field to the binding site [1]: 0.71
open-channel block potency relative to ATL ([1]; based on IC50 (0 mV)): about 5 folds
e-fold change Vm (Vm shift giving an e-fold change of IC50) ([1]; fit with Eq. 6): 37 ± 3.4 mV and 37 mV and 36.9 ± 3.4 mV
e-fold change [Ca2+] ([Ca2+] shift giving an e-fold change of IC50) ([1]; fit with Eq. 6, Vm = −70 mV): 590 µM and 590 ± 70 µM
IC50 ([1]; read-out: IC50(0 mV), value of IC50 at Vm = 0 mV from fit with Eq. 6 (Woodhull)): 60 ± 5.7 µM
IC50 ([1]; read-out: IC50 of the inhibition of NMDAR currents, Vm = −30 mV, [Ca2+] = 0): 27 µM
IC50 ([1]; read-out: IC50 of the inhibition of NMDAR currents, Vm = −30 mV, [Ca2+] = 1 mM): 4.85 µM
IC50 ([1]; read-out: IC50 of the inhibition of NMDAR currents, Vm = −70 mV, [Ca2+] = 0): 8.3 µM
IC50 ([1]; read-out: IC50 of the inhibition of NMDAR currents, Vm = −70 mV, [Ca2+] = 1 mM): 1.75 µM
IC50 ([1]; read-out: IC50 of the inhibition of NMDAR currents, Vm = −70 mV, [Ca2+] = 4 mM): 1.8 µM and 1.81 µM
IC50 ([1]; read-out: IC50 of the inhibition of NMDAR currents, Vm = −100 mV, [Ca2+] = 1 mM): 0.89 µM
fold IC50 decrease with Vm shift from −30 to −100 mV ([1]; regardless of extracellular calcium): 5.4 fold
IC50 [3]: 0.13 µM
e-fold change Vm (NMDARs; 5 μM NMDA, physiological extracellular Ca2+, ref Sernagor et al., 1989): 36 mV
IC50 (NMDARs; 5 μM NMDA, physiological extracellular Ca2+, ref Sernagor et al., 1989, read-out: IC50): 9.8 µM
IC50 (NMDARs; Vm = −70 mV, extracellular Ca2+ present, 100 μM NMDA, ref Barygin et al., 2017, read-out: IC50): 1.4 µM
IC50 (NMDARs; Vm = −70 mV, extracellular Ca2+ present, 100 μM NMDA, ref Nothdurfter et al., 2013, read-out: IC50): 2.7 µM
IC50 (NMDARs; varying experimental conditions, ref Reynolds and Miller 1988, Sernagor et al., 1989, Nothdurfter et al., 2013, Barygin et al., 2017, read-out: IC50 values reported for NMDAR inhibition): 1.4 to 9.8 µM
concentration displacing MK-801 from the NMDAR channels (NMDAR channels): 7.41 µM
